Data from patent US12370170B2, “Composition comprising naphthoquinone-based compound as active ingredient, for preventing or ameliorating fatigue, cachexia, pain, cognitive decline and hematopoietic stem cell reduction which are side effects related to anticancer drug treatment” (NADIANBIO LTD., priority 2016, dated 2025).

Tested on: inflammatory cytokines TNF-α, IL-1β, IL-6 and IL-17
Assay: Plasma inflammatory cytokines by ELISA in 3× and 6×ACP animal model
Format: in vivo, C57BL/6 mice
Settings: dunnione 20 mg/kg oral daily from 3 days before, 3 days after ACP
Procedure: In this invention, 11 weeks old C57BL/6 mice were used. All the mice used in the experiments of the invention were raised in an aseptic animal room at the temperature of 22˜26 L with the humidity of 55˜60%. The mice were allowed to take general solid feed (SAMTACO Co., Ltd., Korea) and water freely. The mice were adapted for 1 week before the experiment. All the experiments were performed after obtaining approval from the clinical trial management committee in accordance with the laboratory animal care and ethics regulations of Wonkwang University. The mouse animal model of the present invention was treated with different anticancer drugs. Particularly, one kind of anticancer drug was administered intraperitoneally one time or more, or several kinds of anticancer drugs were administered once or more times or at different concentrations, leading to the establishment of the animal model of the invention. […]
Plasma was isolated from the 3× and 6×ACP animal model prepared by the same manner as described in Example 7, and the inflammatory cytokines TNF-α, IL-1β, IL-6 and IL-17 were analyzed by ELISA.

Structure (SMILES): CC1OC2=C(C(=O)C(=O)c3ccccc32)C1(C)C (centres unmarked) [dunnione, 2,3-dihydro-2,3,3-trimethyl naphtho [1,2-b]furan-4,5-dione]
- level of inflammatory cytokines (TNF-α, IL-1β, IL-6, IL-17) in plasma (3×ACP i.p. once): significantly inhibited
- level of inflammatory cytokines (TNF-α, IL-1β, IL-6, IL-17) in plasma (6×ACP i.p. once): significantly inhibited
